Reference: EP4624482A1, “PYRIMIDOPYRIMIDINONE COMPOUND AND PHARMACEUTICAL COMPOSITION COMPRISING SAME” (Axceso Biopharma Co., Ltd., priority 2022, dated 2024)

Columns and labels:
[1] = tested on: Tau protein; assay: Tau expression in mouse brain of AD-induced animal model, fluorescence microscopy; assay type: in vivo, mice; details: 1 mg/kg intraperitoneally once every 3 days for 2 weeks; brain sections at 1 week and 4 weeks after drug administration
Protocol: To determine the therapeutic effect on Alzheimer's Disease (AD), the effects on amyloid beta monomer (monomeric Aβ, mAβ) and Tau protein, which are biomarkers of AD, were analyzed in an AD-induced animal model.
APP/PS/Tau transgenic mice were used as an AD-induced animal model. The compound of formula (1a-1) was administered intraperitoneally once every 3 days at a concentration of 1 mg/kg to 12-week-old transgenic mice for 2 weeks, and the expression of mAβ and Tau proteins in the mouse brain was measured after 1 and 4 weeks. After anesthetizing the mouse, the cervical region was incised with a dissecting tool, and then the occipital region was incised to remove both sides of the skull. The brain was washed with phosphate buffered saline (PBS) and fixed with 4% paraformaldehyde (Sigma, St Louis, MO, USA) for 12 hours at 4°C. These were cut to a thickness of approximately 10 µm using a vibratome, and hippocampus and cortex sections were collected and placed in 24 wells. PBS was added to the wells containing the fixed tissue sections, and fluorescent nanoparticles (QD565, red fluorescence) conjugated with anti-amyloid antibodies and anti-Tau antibodies (Santa Cruz, USA) were added to each 2 µM, and reacted at 4°C for 12 hours. The expression of mAβ and Tau was confirmed by fluorescence microscopy.

[2] = tested on: SIRT1; assay: SIRT1 expression in mouse vascular cells; assay type: cell-based
[3] = tested on: α-synuclein; assay: α-synuclein expression in rotenone-treated differentiated SH-SY5Y dopaminergic neurons, western blot; assay type: cell-based, human; details: differentiated dopaminergic neurons treated with rotenone
Protocol: To analyze the effect on the expression of tyrosine hydroxylase (TH) and α-synuclein as neuron-specific proteins, western blot was performed.
SH-SY5Y cell line was treated with retinoic acid and 12-O-tetradecanoylphorbol-13-acetate (TPA) to induce differentiation into TH-secreting neurons for 6 days.
Differentiated dopaminergic neurons were lysed in PRO-PREP (Intronbio), a cell lysis solution containing protease inhibitor cocktail (Gendepot), and electrophoresed in 10% SDS polyacrylamide gels at 20 µg/well. Transfer was performed using PVDF (Merck millipore) as a membrane, and tyrosine hydroxylase antibody, α-synuclein antibody (Cell signaling), and β-actin antibody (Santa Cruz) were used for reaction for more than 2 hours. Protein expression was detected by staining with ECL substrate (Biorad) for development and graphed using the image J program.

[4] = tested on: SIRT1; assay: SIRT1 expression in HUVECs by western blot; assay type: cell-based, human; details: 24 hours
Protocol: To determine the increase in SIRT1 expression by the compound of formula (1a-1) prepared in Example 1 above in human umbilical vein endothelial cells (HUVECs), HUVECs were seeded at 5 × 10^5/4 ml in a 60 mm cell culture dish using ECBM2 medium (Promocell) and stabilized for 12 hours in an incubator maintained at 37°C and 5% CO2, respectively.
The cells were then treated with 10 nM, 100 nM and 1000 nM of the compound of formula (1a-1) prepared in Example 1 above, respectively, and incubated for another 24 hours, and then SIRT1 expression was determined by western blot.

Compound: CCCCCCCCCCCCCC[C@H]1OP(=O)(O)O[C@H]1[C@@H](N)CO.Cl [formula (1a-1), (4S,5R)-4-((S)-1-amino-2-hydroxyethyl)-2-hydroxy-5-tetradecyl-1,3,2-dioxaphosphoran-2-oxide hydrochloride]
- red fluorescence for Tau [1]: negligible
- concentration of maximum expression (SIRT1) [2]: 100 ng/mL
- expression of α-synuclein increased by rotenone [3]: decreased
- expression of SIRT1 ([4]; 10 nM): increases
- EC50 ([4]; read-out: concentration (EC50) that increased the expression of SIRT1 by 50%): ~10 nM
